Columns and labels:
skin of the upper lip = test: Cooling sensation bioassay, ointment applied to skin above the upper lip (philtrum); format: in vivo, human; conditions: for duration of action (in words): application to the skin of test subjects; for duration of action, cooling on the skin of the upper lip (FIG. 1 legend): in Aquaphor ointment, concentration not given; for quality of sensation and duration (coolness not cold, duration at least three hours): philtrum method of testing; for duration of action, cooling on the skin of the upper lip: 0.5% wt/vol in Aquaphor ointment
Source text: A reliable place for topical application is on the upper lip, above the vermillion border of the lips, on the philtrum, lateral to the philtrum until the nasolabial folds, and on the lower nostrils. This part of the face is known to be densely innervated with cold receptors, second only to the surface of eyeball. Tingling, cool and cold sensations may be experienced and rated for intensity. This test is quite accurate for predicting the cooling activity of candidate N-arylshydroxyalkylidene-cCarboxamide drugs, but most importantly, it also measures the duration of drug action on the sensory receptors. The duration of action is not measured in a receptor assay and is difficult to quantify on the tongue because of the dynamic fluid conditions in the oral cavity and the presence of taste factors that affect thermosensation.
Bioassay Procedures For bioassay of CPS-195 on the skin, CPS-195 was stirred and dissolved in warm liquid Aquaphor® ointment to yield ointment concentrations of 0.25, 0.5, 1 and 2% wt/vol. After cooling, 50 to 80 mg of the solid ointment was placed on the tip of a plastic stick and applied to the skin above the upper lip, on the philtrum, and lateral to the philtrum up to the nasolabial folds, of test subjects and the onset and duration of cooling sensations recorded.
The intensity of the subjective skin sensation is rated as 0, 1, 2 or 3 with: 0 as no change, 1 as slight coolness, cold, or tingling, 2 as clear cut signal of coolness, cold, or tingling, and 3 as robust cooling or cold. The interval for recording sensations is at 5 min intervals, until two successive zeroes are obtained. The results are averaged values of 4 to 6 separate trials in the same individual. The data are plotted using SigmaPlot (Systat Software, Point Richmond Calif.) and a smoothing function with a negative exponential was used for analysis and statistical fit of the results.
The onset of drug action is taken as the time to reach 2 units of coolness intensity, and offset of drug action is the time when coolness intensity drops below 1.5, after previously surpassing 2 units. The duration of cooling action is defined as the offset time minus the onset time, which in this case averaged […]. The quality of the sensation is also noted, such as refreshing coolness, cold, or if the sensation is accompanied by irritation (stinging or burning). The quality of the sensation is not rated for intensity.

[1] = test system: dorsal surface of the tongue; test: Cooling sensation after placement on the dorsal surface of the tongue; format: in vivo, human; conditions: 2 mg on dorsal surface of the tongue
Description: The onset of cooling was 3 to 5 min, but once the effect was established, the entire oral cavity and pharyngeal surfaces (oro-, laryngo- and naso-pharynx) felt cool.

[2] = test system: throat irritation and cough; test: Ludipress tablet on the tongue in an individual with throat irritation and cough; format: in vivo, human; conditions: 3% wt/wt tablet in Ludipress, 60 mg (1.8 mg CPS-195)
Description: CPS-195 was formulated as a 3% wt/wt tablet in Ludipress®, a rapidly disintegrating direct compression excipient made by BASF Corp. The tablet size was 60 mg so each unit contained 1.8 mg of CPS-195. […] For example, applied onto the mucous membranes of the oral cavity it can soothe the discomforts of pharyngitis/laryngitis, oral mucositis, oral ulcers, and idiopathic facial pain. In the pharynx and upper airways, CPS-195 may be used to reduce or to treat cough, asthma, and chronic obstructive pulmonary disease. On the skin, CPS-195 can be used to treat the discomfort of severe acne, eczema, diabetic ulcers, and the like.

TRP-M8 receptor = target: T1, TRP-M8 receptor (Homo sapiens, UniProt Q7Z2W7); test: TRP-M8 receptor assay; format: cell-based
T1 construct: expressed in transfected cells
T1 sequence (Q7Z2W7 whole entry): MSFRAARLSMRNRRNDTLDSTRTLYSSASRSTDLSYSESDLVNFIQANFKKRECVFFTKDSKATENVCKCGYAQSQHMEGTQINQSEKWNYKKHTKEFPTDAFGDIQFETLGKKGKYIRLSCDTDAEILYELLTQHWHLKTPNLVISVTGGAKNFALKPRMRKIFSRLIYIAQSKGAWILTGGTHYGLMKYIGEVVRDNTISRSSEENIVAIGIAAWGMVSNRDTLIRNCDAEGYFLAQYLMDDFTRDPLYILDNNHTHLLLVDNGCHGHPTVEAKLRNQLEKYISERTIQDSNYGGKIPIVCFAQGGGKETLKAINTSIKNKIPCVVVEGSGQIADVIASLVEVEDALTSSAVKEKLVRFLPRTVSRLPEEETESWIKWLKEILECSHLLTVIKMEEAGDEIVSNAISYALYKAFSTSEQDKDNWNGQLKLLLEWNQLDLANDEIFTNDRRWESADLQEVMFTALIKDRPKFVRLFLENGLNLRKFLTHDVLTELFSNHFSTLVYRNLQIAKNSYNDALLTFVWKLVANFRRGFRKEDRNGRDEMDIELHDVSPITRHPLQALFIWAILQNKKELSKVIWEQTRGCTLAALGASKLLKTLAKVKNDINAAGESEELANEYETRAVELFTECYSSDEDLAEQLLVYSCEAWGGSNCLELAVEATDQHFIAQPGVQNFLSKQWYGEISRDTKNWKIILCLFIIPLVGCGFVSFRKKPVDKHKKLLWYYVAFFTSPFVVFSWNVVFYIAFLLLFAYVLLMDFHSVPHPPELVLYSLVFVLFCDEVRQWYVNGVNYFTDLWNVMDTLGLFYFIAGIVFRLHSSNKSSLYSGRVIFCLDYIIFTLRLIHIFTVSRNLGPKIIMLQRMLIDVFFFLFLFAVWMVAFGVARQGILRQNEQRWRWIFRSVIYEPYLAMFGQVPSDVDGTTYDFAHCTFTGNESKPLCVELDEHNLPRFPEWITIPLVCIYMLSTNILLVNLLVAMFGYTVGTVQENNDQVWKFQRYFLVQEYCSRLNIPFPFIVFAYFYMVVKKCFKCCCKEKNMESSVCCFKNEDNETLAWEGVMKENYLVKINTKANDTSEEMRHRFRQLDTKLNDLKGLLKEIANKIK
Source text: Tests for Activities of New Compounds. Pain was defined by Sir Charles Sherrington as “the psychic adjunct of an imperative protective reflex”. Psychic events such as cooling, irritation, itch, and pain cannot be expressed by animals (animals cannot say “ouch” or that “it itches”) so the sensory effects of chemicals must be indirectly inferred. Receptor assays, based on cells transfected with the gene for TRP-M8 or TRP-A1, may be used as a model of sensory processes. […] The best information on the pharmacological properties of these chemicals must therefore be derived from human experiment.

CC1CCC(C(C)C)C(O)C1 (single isomer, unassigned; (-)) [(−)-menthol, reference compound]
duration of action (in words) (skin of the upper lip): active for less than one hour

CC(C)[C@@H]1CC[C@@H](C)C[C@H]1C(=O)N(C)CC(O)c1cccc(O)c1 (stereo in doubt) [CPS-195, 2-Isopropyl-5-methyl-cyclohexanecarboxylic acid [2′-hydroxy-2′-(3″-hydroxy-phenyl)-ethyl]-N-methyl-amide]
duration of action, coolness and cold on the skin of the upper lip (skin of the upper lip; 0.25% wt/vol in Aquaphor ointment): 1.2 h
duration of action, coolness and cold on the skin of the upper lip (skin of the upper lip; 1% wt/vol in Aquaphor ointment): 2.4 h
duration of action, coolness and cold on the skin of the upper lip (skin of the upper lip; 2% wt/vol in Aquaphor ointment): 5.2 h
duration of action, cooling on the skin of the upper lip (FIG. 1 legend) (skin of the upper lip): more than 1 hr
potency compared to CPS-179, CPS-190 and CPS-192 (skin of the upper lip; upper lip ointment test): most potent
onset of cooling [1]: 3 to 5 min
duration of antitussive effect [2]: 24 h
effect on throat irritation [2]: reduced throat irritation

CC(C)[C@@H]1CC[C@@H](C)C[C@H]1C(=O)Nc1ccc(S(=O)(=O)Nc2ncccn2)cc1 [CPS-125]
quality of sensation and duration (coolness not cold, duration at least three hours) (skin of the upper lip): qualitative aspects of sensation are met

CC(=O)c1ccc(C(CO)CNC(=O)[C@@H]2C[C@H](C)CC[C@H]2C(C)C)cc1 (stereo partly shown) [CPS-179, 2-Isopropyl-5-methyl-cyclohexanecarboxylic acid [2′-(4″-acetyl-phenyl)-3′-hydroxy-propyl]-amide]
duration of action, cooling on the skin of the upper lip (skin of the upper lip): more than 1 hr
duration of action, cooling on the skin of the upper lip (FIG. 1 legend) (skin of the upper lip): more than 1 hr

CC1CCC(C(C)C)C(C(=O)N(C)CC(O)c2ccc(O)c(O)c2)C1 (stereo not shown) [CPS-190]
duration of action, cooling on the skin of the upper lip (skin of the upper lip): more than 1 hr
duration of action, cooling on the skin of the upper lip (FIG. 1 legend) (skin of the upper lip): more than 1 hr

CC1CCC(C(C)C)C(C(=O)NCC(O)c2cccc(O)c2)C1 (stereo not shown) [CPS-192]
duration of action, cooling on the skin of the upper lip (skin of the upper lip): more than 1 hr
duration of action, cooling on the skin of the upper lip (FIG. 1 legend) (skin of the upper lip): more than 1 hr

CCOC(=O)CNC(=O)[C@@H]1C[C@H](C)CC[C@H]1C(C)C [WS-5, reference compound]
duration of action (in words) (skin of the upper lip): active for less than one hour

COc1ccc(NC(=O)[C@@H]2C[C@H](C)CC[C@H]2C(C)C)cc1 [WS-12, reference compound]
activity on the TRP-M8 receptor assay (TRP-M8 receptor): active at sub-micromolar concentrations
end of action (skin of the upper lip; 2% preparation): dissipated at the end of one hour
time at which duration of action peaks (skin of the upper lip; 2% preparation): 30 min
sensation elicited (skin of the upper lip; applied at 1 to 2% to the philtrum and its environs): strong cold sensations
quality of sensation and duration (coolness not cold, duration at least three hours) (skin of the upper lip): sensations of cold, but of brief duration
